Among the data in patent US9051342B2 (priority 2004, dated 2015) are melting point values, retold here.

For the compound `COc1ccc(-n2ccc(-c3ccc(C(=O)O)cc3)n2)cc1` [Compound 217, 4-[1-(4-Methoxy-phenyl)-1H-pyrazol-3-yl]-benzoic acid], the melting point (as a rule, the temperature of the solid-liquid transition) fell in the range of 252 to 253 °C.
With `O=C(O)c1ccc(-c2ccn(-c3ccc(OC(F)(F)F)cc3)n2)cc1` [Compound 218, 4-[1-(4-Trifluoromethoxy-phenyl)-1H-pyrazol-3-yl]-benzoic acid] the figure was 214 to 215 °C; with `COc1ccc(-c2ccn(-c3ccc(C(=O)O)cc3)n2)cc1` [Compound 219, 4-[3-(4-Methoxy-phenyl)-pyrazol-1-yl]-benzoic acid], 268 to 270 °C.
In turn, `COc1cccc(-c2ccn(-c3cccc(C(=O)O)c3)n2)c1` [Compound 220, 3-[3-(3-Methoxy-phenyl)-pyrazol-1-yl]-benzoic acid] displayed a melting point of 179 to 180 °C.
Consider `COc1cccc(-c2ccn(-c3ccc(C(=O)O)cc3)n2)c1` [Compound 221, 4-[3-(3-Methoxy-phenyl)-pyrazol-1-yl]-benzoic acid], for which the melting point lay in the range of 200 to 202 °C.
With `O=C(O)c1ccc(-n2ccc(-c3ccccc3)n2)cc1` [Compound 222, 4-(3-Phenyl-pyrazol-1-yl)-benzoic acid] the figure was 244 to 245 °C; with `O=C(O)c1cccc(-c2cnn(-c3cccc(OC(F)(F)F)c3)c2)c1` [Compound 223, 3-[1-(3-Trifluoromethoxy-phenyl)-1H-pyrazol-4-yl]-benzoic acid], 143 to 145 °C.
Then `O=C(O)c1ccc(-c2cnn(-c3cccc(OC(F)(F)F)c3)c2)cc1` [Compound 224, 4-[1-(3-Trifluoromethoxy-phenyl)-1H-pyrazol-4-yl]-benzoic acid], with 230 to 231 °C.
Then `O=C(O)c1cccc(-c2cnn(-c3ccc4c(c3)OCCO4)c2)c1` [Compound 225, 3-[1-(2,3-Dihydro-benzo[1,4]dioxin-6-yl)-1H-pyrazol-4-yl]-benzoic acid], with 201 to 203 °C; and `O=C(O)c1ccc(-c2cnn(-c3ccc4c(c3)OCCO4)c2)cc1` [Compound 226, 4-[1-(2,3-Dihydro-benzo[1,4]dioxin-6-yl)-1H-pyrazol-4-yl]-benzoic acid], with 238 to 240 °C.
`O=C(O)c1ccc(-c2cnn(-c3ccc4c(c3)OCO4)c2)cc1` [Compound 227, 4-(1-Benzo[1,3]dioxol-5-yl-1H-pyrazol-4-yl)-benzoic acid]: the melting point lay within 266 to 268 °C.
Turning to `CC(C)c1ccc(-n2cc(-c3cccc(C(=O)O)c3)cn2)cc1` [Compound 228, 3-[1-(4-Isopropyl-phenyl)-1H-pyrazol-4-yl]-benzoic acid], the melting point was 212 to 215 °C.
`CC(C)c1ccc(-n2cc(-c3ccc(C(=O)O)cc3)cn2)cc1` [Compound 229, 4-[1-(4-Isopropyl-phenyl)-1H-pyrazol-4-yl]-benzoic acid] had a melting point of 215 to 218 °C.
Then `Cc1ccc(-n2cc(-c3cccc(C(=O)O)c3)cn2)cc1Cl` [Compound 230, 3-[1-(3-Chloro-4-methyl-phenyl)-1H-pyrazol-4-yl]-benzoic acid], with 209 to 211 °C.
Then `Cc1ccc(-n2cc(-c3ccc(C(=O)O)cc3)cn2)cc1Cl` [Compound 231, 4-[1-(3-Chloro-4-methyl-phenyl)-1H-pyrazol-4-yl]-benzoic acid], with 285 to 288 °C; and `O=C(O)c1cccc(-c2cnn(-c3ccc(Cl)c(Cl)c3)c2)c1` [Compound 232, 3-[1-(3,4-Dichloro-phenyl)-1H-pyrazol-4-yl]-benzoic acid], with 135 to 138 °C; and `O=C(O)c1ccc(-c2cnn(-c3ccc(Cl)c(Cl)c3)c2)cc1` [Compound 233, 4-[1-(3,4-Dichloro-phenyl)-1H-pyrazol-4-yl]-benzoic acid], with 286 to 289 °C.
As for `O=C(O)c1ccc(-c2cnn(-c3ccc(Cl)cc3)c2)cc1` [Compound 234, 4-[1-(4-Chloro-phenyl)-1H-pyrazol-4-yl]-benzoic acid], the melting point fell in the range of 259 to 261 °C.
Then `O=C(O)c1cccc(-c2cnn(-c3ccc(C(F)(F)F)cc3)c2)c1` [Compound 235, 3-[1-(4-Trifluoromethyl-phenyl)-1H-pyrazol-4-yl]-benzoic acid], with 218 to 220 °C; and `O=C(O)c1ccc(-c2cnn(-c3ccc(C(F)(F)F)cc3)c2)cc1` [Compound 236, 4-[1-(4-Trifluoromethyl-phenyl)-1H-pyrazol-4-yl]-benzoic acid], with 271 to 273 °C; and `Cc1ccc(-n2cc(-c3ccc(C(=O)O)cc3)cn2)cc1C` [Compound 238, 4-[1-(3,4-Dimethyl-phenyl)-1H-pyrazol-4-yl]-benzoic acid], with 254 to 256 °C.
`O=C(O)c1cccc(-c2cnn(-c3ccc4c(c3)OCO4)c2)c1` [Compound 239, 3-(1-Benzo[1,3]dioxol-5-yl-1H-pyrazol-4-yl)-benzoic acid] yielded a melting point of 221 to 223 °C.
The compound `Cc1ccccc1-n1ccc(-c2cccc(C(=O)O)c2)c1` [Compound 240, 3-(1-o-Tolyl-1H-pyrrol-3-yl)-benzoic acid] came in with a melting point of 161 to 163 °C.
Then `Cc1ccc(-n2ccc(-c3cccc(C(=O)O)c3)c2)cc1F` [Compound 241, 3-[1-(3-Fluoro-4-methyl-phenyl)-1H-pyrrol-3-yl]-benzoic acid], with 205 to 208 °C; and `O=C(O)c1cccc(-c2ccn(-c3cc(F)ccc3F)c2)c1` [Compound 242, 3-[1-(2,5-Difluoro-phenyl)-1H-pyrrol-3-yl]-benzoic acid], with 193 to 194 °C; and `O=C(O)c1ccc(-c2ccn(-c3cccc(Cl)c3)c2)cc1` [Compound 243, 4-[1-(3-Chloro-phenyl)-1H-pyrrol-3-yl]-benzoic acid], with 199 to 201 °C.
Compound `Cc1ccc(-n2ccc(-c3ccc(C(=O)O)cc3)c2)cc1F` [Compound 244, 4-[1-(3-Fluoro-4-methyl-phenyl)-1H-pyrrol-3-yl]-benzoic acid] returned a melting point of 264 to 268 °C.
Regarding `O=C(O)c1ccc(-c2ccn(-c3cc(F)ccc3F)c2)cc1` [Compound 245, 4-[1-(2,5-Difluoro-phenyl)-1H-pyrrol-3-yl]-benzoic acid], the melting point was in the range of 215 to 218 °C.
`O=C(O)c1cccc(-c2ccn(-c3cccc(OCc4ccccc4)c3)c2)c1` [Compound 246, 3-[1-(3-Benzyloxy-phenyl)-1H-pyrrol-3-yl]-benzoic acid]: the melting point is 142 to 144 °C.
With `O=C(O)c1cccc(-c2ccn(-c3ccc4c(c3)OCO4)c2)c1` [Compound 247, 3-(1-Benzo[1,3]dioxol-5-yl-1H-pyrrol-3-yl)-benzoic acid] the figure was 177 to 180 °C; with `COc1ccc2c(c1)-c1cn(-c3cccc(C(=O)O)c3)nc1CC2` [Compound 253, 3-(8-Methoxy-4,5-dihydro-benzo[e]indazol-2-yl)-benzoic acid], 239 to 241 °C; with `COc1ccc2c(c1)-c1cnn(-c3cccc(C(=O)O)c3)c1CC2` [Compound 254, 3-(8-Methoxy-4,5-dihydro-benzo[e]indazol-3-yl)-benzoic acid], 269 to 271 °C.
Then `CC(=O)c1ccc(-n2ccc(-c3cccc(C(=O)O)c3)n2)cc1` [Compound 255, 3-[1-(4-Acetyl-phenyl)-1H-pyrazol-3-yl]-benzoic acid], with 215 to 216 °C.
Take `CC(=O)c1ccc(-n2ccc(-c3ccc(C(=O)O)cc3)n2)cc1` [Compound 256, 4-[1-(4-Acetyl-phenyl)-1H-pyrazol-3-yl]-benzoic acid]: the melting point lay in the range of 278 to 279 °C.
Then `O=C(O)c1ccc(-c2ccn(-c3ccc4[nH]ccc4c3)n2)cc1` [Compound 257, 4-[1-(1H-Indol-5-yl)-1H-pyrazol-3-yl]-benzoic acid], with 281 to 282 °C.
Consider `O=C(O)c1cccc(-c2ccn(-c3cccs3)n2)c1` [Compound 258, 3-(1-Thiophen-2-yl-1H-pyrazol-3-yl)-benzoic acid], for which the melting point is 198 to 199 °C.
With `O=C(O)c1ccc(-c2ccn(-c3cccs3)n2)cc1` [Compound 259, 4-(1-Thiophen-2-yl-1H-pyrazol-3-yl)-benzoic acid] the figure was 200 to 202 °C; with `O=C(O)c1cccc(-c2ccn(-c3cccnc3)n2)c1` [Compound 260, 3-(1-Pyridin-3-yl-1H-pyrazol-3-yl)-benzoic acid], 235 to 236 °C; with `O=C(O)c1ccc(-c2ccn(-c3cccnc3)n2)cc1` [Compound 261, 4-(1-Pyridin-3-yl-1H-pyrazol-3-yl)-benzoic acid], 280 to 282 °C.
Then `O=C(O)c1cccc(-n2cnc(-c3ccccc3)c2)c1` [Compound 262, 3-(4-Phenyl-imidazol-1-yl)-benzoic acid], with 277 to 279 °C.
Then `O=C(O)c1ccc(-n2cnc(-c3ccccc3)c2)cc1` [Compound 263, 4-(4-Phenyl-imidazol-1-yl)-benzoic acid], with 263 to 265 °C.
As for `O=C(O)c1ccc(-n2cc(-c3ccccc3F)nn2)cc1` [Compound 264, 4-[4-(2-Fluoro-phenyl)-[1,2,3]triazol-1-yl]-benzoic acid], the melting point was in the range of 292 to 294 °C.
With `O=C(O)c1ccc(-n2cc(-c3cccc(F)c3)nn2)cc1` [Compound 265, 4-[4-(3-Fluoro-phenyl)-[1,2,3]triazol-1-yl]-benzoic acid] the figure was 327 to 328 °C.
With `O=C(O)c1ccc(-n2cc(-c3ccc(F)cc3)nn2)cc1` [Compound 266, 4-[4-(4-Fluoro-phenyl)-[1,2,3]triazol-1-yl]-benzoic acid] the figure was 321 to 323 °C; with `O=C(O)c1ccc(-n2cc(-c3ccc(Br)cc3F)nn2)cc1` [Compound 267, 4-[4-(4-Bromo-2-fluoro-phenyl)-[1,2,3]triazol-1-yl]-benzoic acid], 327 to 328 °C; with `O=C(O)c1ccc(-n2cc(-c3ccc(F)cc3F)nn2)cc1` [Compound 268, 4-[4-(2,4-Difluoro-phenyl)-[1,2,3]triazol-1-yl]-benzoic acid], 312 to 313 °C.
